We go through five compounds from ChEMBL document CHEMBL5608163, “Structure modification of anoplin for fighting resistant bacteria” (Eur J Med Chem, 2024).

In general, HC50 refers to the concentration giving 50% haemolysis. A lower HC50 goes with more damage to red cells. A word on the MIC: it is the lowest concentration found to suppress growth.

The nature of series [1]: Hemolytic activity in mouse RBC incubated for 1 hr. It counts as toxicity, cell-based, Erythrocyte. The conditions noted are these: red blood cells.
Series [2] deals with Staphylococcus aureus. Nature of the series: Antimicrobial activity against Staphylococcus aureus ATCC 25923 assessed as reduction in microbial growth incubated for 18 to 20 hrs by Mueller-Hinton broth based microdilution method. The series is classed as functional. The following applies: time 18-20 hrs. In general terms: Dilution methods test growth across graded concentrations, often in twofold steps.

Series [3] is described as follows: Hemolytic activity in human RBC. It counts as toxicity, cell-based, Erythrocyte. The conditions noted are these: red blood cells.
Another series relates to Enterococcus faecium. Nature of the series: Antimicrobial activity against Enterococcus faecium assessed as reduction in microbial growth incubated for 18 to 20 hrs by Mueller-Hinton broth based microdilution method. The following applies: time 18-20 hrs. The series is classed as functional.
Series [4] has as its system Bacillus subtilis. Nature of the series: Antimicrobial activity against Bacillus subtilis ATCC 23857 assessed as reduction in microbial growth incubated for 18 to 20 hrs by Mueller-Hinton broth based microdilution method. The series is classed as functional. The conditions noted are these: time 18-20 hrs.
In series [5] the test system is Escherichia coli. Nature of the series: Antibacterial activity against Escherichia coli ATCC 25922 assessed as bacterial growth inhibition incubate for 18 to 20 hrs by MH broth based assay. It counts as functional. The conditions noted are these: time 18-20 hrs.
In series [6] the test system is Staphylococcus aureus. Nature of the series: Antibacterial activity against Staphylococcus aureus ATCC 25923 assessed as reduction in bacterial growth measured after 18 hrs by CLSI protocol-based Mueller-Hinton broth dilution method. It counts as functional.
In series [7] the test system is Bacillus subtilis. Description: Antibacterial activity against Bacillus subtilis ATCC 23857 assessed as reduction in bacterial growth measured after 18 hrs by CLSI protocol-based Mueller-Hinton broth dilution method. It counts as functional.
A further series relates to Erythrocyte. Description: Hemolytic activity in human red blood cells. The series is classed as toxicity, cell-based. The conditions noted are these: erythrocyte.
Series [8] has as its system Escherichia coli. Nature of the series: Antibacterial activity against Escherichia coli ATCC 25922 assessed as reduction in bacterial growth measured after 18 hrs by CLSI protocol-based Mueller-Hinton broth dilution method. It counts as functional.
For series [9], the system named is Pseudomonas aeruginosa. Nature of the series: Antibacterial activity against Pseudomonas aeruginosa ATCC 27853 assessed as reduction in bacterial growth measured after 18 hrs by CLSI protocol-based Mueller-Hinton broth dilution method. The series is classed as functional.
Series [10] in a line: Hemolytic activity in human erythrocytes. It counts as toxicity, cell-based, Erythrocyte.
Series [11] has as its system Zymomonas mobilis. Nature of the series: Antibacterial activity against Zymomonas mobilis ATCC 10988 assessed as reduction in bacterial growth. The series is classed as functional.
Series [12] relates to Bacillus subtilis. Description: Antibacterial activity against Bacillus subtilis assessed as reduction in bacterial growth. It counts as functional.
Series [13] deals with Escherichia coli. Nature of the series: Antibacterial activity against Escherichia coli DH5a assessed as reduction in bacterial growth. It counts as functional.
Series [14] relates to Mycolicibacterium smegmatis. Nature of the series: Antimycobacterial activity against Mycobacterium smegmatis mc2 155 assessed as reduction in bacterial cell growth incubated for 48 hrs by resazurin dye based assay. It counts as functional. (In general: The colour change of resazurin is a common sign of viable cells or microbes.)
Series [15] relates to Pseudomonas aeruginosa. Description: Antibacterial activity against Pseudomonas aeruginosa PAO1 assessed as reduction in bacterial growth. It counts as functional.
Series [16] relates to Zymomonas mobilis. Description: Antibacterial activity against Zymomonas mobilis ATCC 10988 assessed as bacterial growth inhibition. The series is classed as functional.
Series [17] in a line: Hemolytic activity in human erythrocytes measured after 1 hrs by microplate reader analysis. The series is classed as toxicity, cell-based, Erythrocyte.
In series [18] the test system is Escherichia coli. Description: Antibacterial activity against Escherichia coli DH5a assessed as bacterial growth inhibition. The series is classed as functional.
Series [19] concerns Mycolicibacterium smegmatis. Description: Antibacterial activity against Mycobacterium smegmatis mc2 155 assessed as bacterial growth inhibition. It counts as functional.
Series [20] relates to Pseudomonas aeruginosa. Nature of the series: Antibacterial activity against Pseudomonas aeruginosa PAO1 assessed as bacterial growth inhibition. It counts as functional.
The subject of series [21] is Bacillus subtilis. Nature of the series: Antibacterial activity against Bacillus subtilis assessed as bacterial growth inhibition. It counts as functional.

SMILES strings stand for the structures. Converted amounts (≈) assume the structure as drawn. Bridge positions count the residues as written; N and C are the ends. Square brackets hold non-standard residues; d marks the D form. Triazole bridges read from a SMILES are 1,4-linked. Peptide text beside a SMILES is read from it. I, II: the chains in the order shown. * marks the point of attachment. Lys(N3) = [N-]=[N+]=NCCCC[C@H](N)C(=O)O; Tridecanoyl = CCCCCCCCCCCCC(=O)*; Undecanoyl = CCCCCCCCCCC(=O)*; Pra = C#CC[C@H](N)C(=O)O

For the compound `CC(C)C[C@H](NC(=O)[C@H](CC(C)C)NC(=O)[C@H](CCCCN)NC(=O)[C@H](CCCCN)NC(=O)[C@H](Cc1c[nH]c2ccccc12)NC(=O)[C@H](CCCNC(=N)N)NC(=O)[C@H](CCCCN)NC(=O)[C@H](CC(C)C)NC(=O)[C@H](CC(C)C)NC(=O)[C@@H](N)Cc1c[nH]c2ccccc12)C(N)=O`, the HC50 at 1 h in series [1] is over 200 µM. The MIC was 32 µM in the series with Staphylococcus aureus [2], 16 µM in the series on Enterococcus faecium, 16 µM in the series with Bacillus subtilis [4] and 64 µM (≈ 88.5 µg/mL) with Escherichia coli [5]. Besides, the HC50 in series [3] is over 200 µM.

As for `CC(C)C[C@H](NC(=O)[C@H](CC(C)C)NC(=O)[C@H](CCCCN)NC(=O)[C@H](CCCCN)NC(=O)[C@H](Cc1c[nH]c2ccccc12)NC(=O)[C@H](Cc1c[nH]c2ccccc12)NC(=O)[C@H](CCCCN)NC(=O)[C@H](CC(C)C)NC(=O)[C@H](CC(C)C)NC(=O)[C@@H](N)CCCCN)C(N)=O` (H-KLLKWWKKLL-NH2), the HC50 at 1 h in series [1] is over 200 µM. Besides, the MIC is 16 µM with Staphylococcus aureus [2], 8 µM in the series with Enterococcus faecium, 8 µM in the series with Bacillus subtilis [4] and 16 µM (≈ 21.7 µg/mL) in the series on Escherichia coli [5]. The same compound displayed an HC50 in series [3] of over 200 µM.

In the case of `CC[C@H](C)[C@H](NC(=O)[C@H](CCCNC(=N)N)NC(=O)[C@H](CCCCN)NC(=O)[C@H](CC(C)C)NC(=O)[C@H](CC(C)C)NC(=O)CNC(=O)[C@H](CCCCn1cc(C[C@H](NC(C)=O)C(=O)NCC(=O)N[C@@H](CC(C)C)C(=O)N[C@@H](CC(C)C)C(=O)N[C@@H](CCCCN)C(=O)N[C@@H](CCCNC(=N)N)C(=O)N[C@H](C(=O)N[C@@H](CCCCN)C(=O)N[C@H](C(=O)N[C@@H](CC(C)C)C(=O)N[C@@H](CC(C)C)C(N)=O)[C@@H](C)O)[C@@H](C)CC)nn1)NC(C)=O)C(=O)N[C@@H](CCCCN)C(=O)N[C@H](C(=O)N[C@@H](CC(C)C)C(=O)N[C@@H](CC(C)C)C(N)=O)[C@@H](C)O` (I: Ac-[Lys(N3)]GLLKRIKTLL-NH2 / II: Ac-[Pra]GLLKRIKTLL-NH2; triazole I:1-II:1), the MIC in the series with Staphylococcus aureus [6] worked out at 8 µM (≈ 21.1 µg/mL); in the series with Bacillus subtilis [7] it was 2 µM (≈ 5.28 µg/mL); in the series with Escherichia coli [8], 4 µM (≈ 10.6 µg/mL); in the series with Pseudomonas aeruginosa [9], 16 µM (≈ 42.2 µg/mL). Further, the HC10 in the series with Erythrocyte was found to be 150 µM.

For the compound `CCCCCCCCCCCCC(=O)NCC(=O)N[C@@H](CC(C)C)C(=O)N[C@@H](CC(C)C)C(=O)N[C@@H](CCCCN)C(=O)N[C@@H](Cc1ccccc1)C(=O)N[C@H](C(=O)N[C@@H](CCCCN)C(=O)N[C@@H](CCCCN)C(=O)N[C@@H](CC(C)C)C(=O)N[C@@H](CC(C)C)C(N)=O)[C@@H](C)CC` (Tridecanoyl-GLLKFIKKLL-NH2), in [10], the HC50 was under 370 µM. Further, the MIC in the series on Zymomonas mobilis [11] worked out at 22.1 µM (≈ 30.3 µg/mL); in the series on Bacillus subtilis [12], 8 µM (≈ 10.9 µg/mL); in the series on Escherichia coli [13], 22.1 µM (≈ 30.3 µg/mL); in series [14] it was 3.69 µM (≈ 5.05 µg/mL); in the series with Pseudomonas aeruginosa [15], 3.69 µM (≈ 5.05 µg/mL).

In series [10], `CCCCCCCCCCC(=O)NCC(=O)N[C@@H](CC(C)C)C(=O)N[C@@H](CC(C)C)C(=O)N[C@@H](CCCCN)C(=O)N[C@@H](Cc1ccccc1)C(=O)N[C@H](C(=O)N[C@@H](CCCCN)C(=O)N[C@@H](CCCCN)C(=O)N[C@@H](CC(C)C)C(=O)N[C@@H](CC(C)C)C(N)=O)[C@@H](C)CC` (Undecanoyl-GLLKFIKKLL-NH2) had an HC50 of under 377 µM. In addition, the MIC is 12.7 µM (≈ 17 µg/mL) in the series on Zymomonas mobilis [16]; 3.77 µM (≈ 5.05 µg/mL) in the series on Zymomonas mobilis [11]; 8 µM (≈ 10.7 µg/mL) with Bacillus subtilis [12]; 22.6 µM (≈ 30.3 µg/mL) in the series on Escherichia coli [13]; over 170 µM in the series on Escherichia coli [18]; over 168 µM in series [19]. For the same compound, the MIC is 3.77 µM (≈ 5.05 µg/mL) in series [14], 3.77 µM (≈ 5.05 µg/mL) in the series with Pseudomonas aeruginosa [15], 33.9 µM (≈ 45.4 µg/mL) with Pseudomonas aeruginosa [20] and over 170 µM in the series with Bacillus subtilis [21]. For the same compound, in series [17], the HC50 at 1 h is 148 µM.
